Experimental data as given in patent publication US8071612B2, “6-alkenyl and 6-phenylalkyl substituted 2-quinolinones and 2-quinoxalinones as poly(ADP-ribose) polymerase inhibitors” (Janssen Pharmaceutica, NV, priority 2004, dated 2011).

Assays:
[1] = target: T1, PARP-1 enzyme (Homo sapiens, UniProt P09874); assay: In vitro Scintillation Proximity Assay (SPA) for PARP-1 inhibitory activity; type: biochemical; settings: nicked DNA activated PARP-1, [3H]-NAD+, biotinylated histones; read-out: In vitro SPA pIC50 (converted)
T1 construct: made in house
Summary of the method: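 Human PARP-1 (5–10 μg/ml), activated by nicked DNA (2 μg/ml), ADP-ribosylated biotinylated histones (2 μg/ml) using [3H]-NAD+ as donor for 15 min at room temperature in Tris pH 8/DTT/MgCl2. The reaction was stopped with NAD+ (2 mM final) and read by SPA scintillation counting. IC50 was interpolated from blank-corrected % of control and reported as pIC50.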

[2] = target: T1, PARP-1 enzyme; assay: In vitro filtration assay for PARP-1 inhibitory activity; type: biochemical; settings: nicked DNA activated PARP-1, [32P]-NAD, histones; read-out: In vitro filtration assay pIC50 (converted)
Experimental: Compounds of the present invention were tested in an in vitro filtration assay assessing PARP-1 activity (triggered in the presence of nicked DNA) by means of its histone poly (ADP-ribosyl)ation activity using [^32P]-NAD as ADP-ribosyl donor. The radioactive ribosylated histones were precipitated by trichloroacetic acid (TCA) in 96-well filterplates and the incorporated [^32P] measured using a scintillation counter
A mixture of histones (stock solution: 5 mg/ml in H2O), NAD (stock solution: 100 mM in H2O), and [^32P]-NAD^+ in incubation buffer (50 mM Tris/HCl, pH 8; 0.2 mM DTT; 4 mM MgCl2) was made. A mixture of the PARP-1 enzyme (5-10 μg/ml) and nicked DNA was also made. The nicked DNA was prepared as described in the in vitro SPA for PARP-1 inhibitory activity. Seventy-five μl of the PARP-1 enzyme/DNA mixture together with 1 μl of compound in DMSO and 25 μl of histones-NAD^+/[^32P]-NAD^+ mixture was added per well of a 96-well filterplate (0.45 μm, supplier Millipore). The final concentrations in the incubation mixture were 2 μg/ml for the histones, 0.1 mM for the NAD^+, […] (0.5 μC) for the [^32P]-NAD^+ and 2 μg/ml for the nicked DNA. Plates were incubated for 15 min. at room temperature and the reaction was terminated by the addition of 10 μl ice cold 100% TCA followed by the addition of 10 μl ice-cold BSA solution (1% in H2O). The protein fraction was allowed to precipitate for 10 min. at 4° C. and plates were vacuum filtered. The plates were subsequently washed with, for each well, 1 ml of 10% ice cold TCA, 1 ml of 5% ice cold TCA and 1 ml of 5% TCA at room temperature. Finally 100 μl of scintillation solution (Microscint 40, Packard) was added to each well and the plates were transferred to a TopCountNXT™ (supplier: Packard) for scintillation counting and values were expressed as counts per minute (cpm). For each experiment, controls (containing PARP-1 enzyme and DMSO without compound), a blank incubation (containing DMSO but no PARP-1 enzyme or compound) and samples (containing PARP-1 enzyme and compound dissolved in DMSO) were run in parallel. All compounds tested were dissolved and eventually further diluted in DMSO. In first instance, compounds were tested at a concentration of 10^−5M. […] In each test, the blank value was subtracted from both the control and the sample values. The control sample represented maximal PARP-1 enzyme activity. For each sample, the amount of cpm was expressed as a percentage of the mean cpm value of the controls. When appropriate, IC50-values (concentration of the drug, needed to reduce the PARP-1 enzyme activity to 50% of the control) were computed using linear interpolation between the experimental points just above and below the 50% level. Herein the effects of test compounds are expressed as pIC50 (the negative log value of the IC50-value). As a reference compound, 4-amino-1,8-naphthalimide was included to validate the filtration assay.

[3] = system: colitis; settings: rats, colitis by intraluminal trinitrobenzene sulfonic acid in 50% ethanol; cited from earlier work
[4] = system: infarct size in the heart; settings: rabbits, cited from earlier work

T1 sequence (P09874 whole entry): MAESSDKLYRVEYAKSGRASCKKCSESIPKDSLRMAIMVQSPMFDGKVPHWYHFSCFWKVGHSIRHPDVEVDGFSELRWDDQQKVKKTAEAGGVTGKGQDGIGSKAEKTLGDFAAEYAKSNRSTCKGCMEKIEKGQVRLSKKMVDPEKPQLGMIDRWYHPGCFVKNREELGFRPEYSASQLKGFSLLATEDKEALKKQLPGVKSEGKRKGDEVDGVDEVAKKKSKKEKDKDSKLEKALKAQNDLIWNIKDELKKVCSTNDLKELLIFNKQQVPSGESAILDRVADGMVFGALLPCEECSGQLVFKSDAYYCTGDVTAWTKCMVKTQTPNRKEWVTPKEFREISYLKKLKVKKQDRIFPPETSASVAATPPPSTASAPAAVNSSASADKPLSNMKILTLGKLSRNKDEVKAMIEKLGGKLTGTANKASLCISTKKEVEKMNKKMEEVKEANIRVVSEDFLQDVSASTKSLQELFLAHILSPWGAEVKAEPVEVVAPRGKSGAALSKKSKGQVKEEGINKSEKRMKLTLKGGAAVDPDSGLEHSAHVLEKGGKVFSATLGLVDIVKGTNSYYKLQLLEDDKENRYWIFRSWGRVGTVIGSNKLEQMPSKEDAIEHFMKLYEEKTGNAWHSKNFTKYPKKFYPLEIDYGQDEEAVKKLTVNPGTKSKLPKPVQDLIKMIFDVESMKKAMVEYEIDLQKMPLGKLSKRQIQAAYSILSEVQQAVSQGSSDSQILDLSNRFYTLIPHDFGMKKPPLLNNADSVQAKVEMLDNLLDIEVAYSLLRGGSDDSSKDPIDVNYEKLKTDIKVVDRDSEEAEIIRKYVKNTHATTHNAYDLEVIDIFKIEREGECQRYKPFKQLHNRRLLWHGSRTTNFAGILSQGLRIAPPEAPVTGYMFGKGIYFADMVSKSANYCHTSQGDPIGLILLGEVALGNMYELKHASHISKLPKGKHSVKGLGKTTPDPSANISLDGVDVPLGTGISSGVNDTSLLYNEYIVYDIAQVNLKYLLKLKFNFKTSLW

IC50 [1]	melting point	IC50 [2]	Structure (SMILES)	effect on inflammatory response, morphology and energetic status of the distal colon [3]	reduction in infarct size in the heart ([4]; single injection 10 mg/kg, one minute before occlusion or one minute before reperfusion)	reduction in infarct size ([4]; single injection 1 mg/kg)
366 nM	188 °C	4050 nM	CCc1nc2cc(C(c3ccc(Cl)cc3)n3cncn3)ccc2[nH]c1=O (stereo not shown) [Compound 22]			
9.2 nM	181 °C		CCc1cc2cc(C(CCN3CCCCC3)c3ccc4c(c3)OCCO4)ccc2[nH]c1=O (stereo not shown) [Compound 16]			
152 nM	220.1 °C	619 nM	CCc1cc2cc(C(c3ccccc3)n3ccnc3)ccc2[nH]c1=O (stereo not shown) [Compound 17]			
256 nM	204 °C		CCc1nc2cc(CC(O)c3ccc(Cl)cc3)ccc2[nH]c1=O (stereo not shown) [Compound 19]			
191 nM	194 °C		CCc1nc2cc(CC(c3ccc(Cl)cc3)N3CCCC3)ccc2[nH]c1=O (stereo not shown) [Compound 21]			
19.5 nM	> 260 °C		CCc1cc2cc(C(NC=O)c3ccc4c(c3)OCCO4)ccc2[nH]c1=O (stereo not shown) [Compound 18]			
275 nM	270 °C	1750 nM	CCc1nc2cc(CC(c3ccc(Cl)cc3)n3ccnc3)ccc2[nH]c1=O (stereo not shown) [Compound 20]			

The next lines start with the compound.

Structure (SMILES)	IC50 [1]	melting point	IC50 [2]	effect on inflammatory response, morphology and energetic status of the distal colon [3]	reduction in infarct size in the heart ([4]; single injection 10 mg/kg, one minute before occlusion or one minute before reperfusion)	reduction in infarct size ([4]; single injection 1 mg/kg)
CCc1cc2cc(C(=O)c3ccc4c(c3)OCCO4)ccc2[nH]c1=O [Compound 2]	735 nM	255 °C				
NC(=O)c1cccc(N)c1 [3-amino-benzamide]				reduced the inflammatory response and restored the morphology and the energetic status of the distal colon	32-42%	
CCc1cc2cc(C(O)c3ccc4c(c3)OCO4)ccc2[nH]c1=O (stereo not shown) [Compound 12]	40.1 nM	211 °C				
CCc1cc2cc(C(OC(C)=O)c3ccccc3)ccc2[nH]c1=O (stereo not shown) [Compound 3]	407 nM	168.2 °C	4340 nM			
CCc1cc2cc(C(c3ccc4c(c3)OCCO4)C3CCN(C/C=C/c4ccccc4)CC3)ccc2[nH]c1=O (stereo not shown) [Compound 14]	97.1 nM	107 °C				
COCCNC1CCN(C(c2ccc3c(c2)OCCO3)c2ccc3[nH]c(=O)c4ccccc4c3c2)CC1 (stereo not shown) [Compound 11]	7.29 nM	116 °C				
CNC(c1ccccc1)c1ccc2[nH]c(=O)c(C)cc2c1 (stereo not shown) [Compound 1]	285 nM	174.3 °C	2330 nM			
Oc1cccc2c(O)nccc12 [1,5-dihydroxyisoquinoline]						38-48%
Cc1cc2cc(C(c3ccccc3)N(C)C)ccc2[nH]c1=O (stereo not shown) [Compound 6]	957 nM	226.7 °C	3940 nM			
Cc1cc2cc(C(c3ccccc3)n3cncn3)ccc2[nH]c1=O (stereo not shown) [Compound 5]	1400 nM	254.2 °C	9440 nM			
CC(=O)NCC(c1ccccc1)c1ccc2[nH]c(=O)c(C)cc2c1 (stereo not shown) [Compound 8]	213 nM	206.2 °C	2540 nM			
COC(c1ccccc1)c1ccc2[nH]c(=O)c(C)cc2c1 (stereo not shown) [Compound 9]	1800 nM	207.3 °C	9400 nM			
Cc1cc2cc(C(C#N)c3ccccc3)ccc2[nH]c1=O (stereo not shown) [Compound 4]	435 nM	227.5 °C	2670 nM			
